Calls of active or inactive are those of the source. The calls are words filed in the database; no cut-off is given here.
Legend:
[1] = biological target: T1, Mitogen-activated protein kinase kinase kinase kinase 1 (Homo sapiens, UniProt Q92918); test: Inhibition of HPK1 (unknown origin) using myelin basic protein as substrate incubated for 60 mins in presence of ATP by ADP-Glo kinase assay
Target sequence in this assay (Q92918 whole entry): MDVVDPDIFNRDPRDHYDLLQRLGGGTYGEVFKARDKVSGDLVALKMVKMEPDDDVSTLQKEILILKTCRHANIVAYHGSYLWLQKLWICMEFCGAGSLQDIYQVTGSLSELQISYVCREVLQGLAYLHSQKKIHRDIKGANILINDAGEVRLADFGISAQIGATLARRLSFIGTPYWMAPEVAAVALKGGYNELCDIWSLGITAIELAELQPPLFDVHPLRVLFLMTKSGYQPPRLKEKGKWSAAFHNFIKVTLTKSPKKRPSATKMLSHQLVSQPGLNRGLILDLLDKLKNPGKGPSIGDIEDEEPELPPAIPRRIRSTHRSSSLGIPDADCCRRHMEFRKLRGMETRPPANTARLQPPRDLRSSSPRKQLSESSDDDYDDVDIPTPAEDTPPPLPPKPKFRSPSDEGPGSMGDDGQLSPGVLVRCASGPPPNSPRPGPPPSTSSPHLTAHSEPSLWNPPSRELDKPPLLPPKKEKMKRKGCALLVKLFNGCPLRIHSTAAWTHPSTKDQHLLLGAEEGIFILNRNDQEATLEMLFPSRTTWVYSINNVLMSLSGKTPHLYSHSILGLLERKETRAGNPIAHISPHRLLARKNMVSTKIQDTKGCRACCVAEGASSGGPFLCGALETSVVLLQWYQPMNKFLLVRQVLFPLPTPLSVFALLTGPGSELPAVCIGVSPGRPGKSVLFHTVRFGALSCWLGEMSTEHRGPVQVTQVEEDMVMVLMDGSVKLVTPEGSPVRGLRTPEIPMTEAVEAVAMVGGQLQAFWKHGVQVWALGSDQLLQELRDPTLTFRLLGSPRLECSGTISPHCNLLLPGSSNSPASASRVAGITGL

[2] = biological target: T1, Mitogen-activated protein kinase kinase kinase kinase 1; test: Inhibition of HPK1 (unknown origin) at 100 nM using myelin basic protein as substrate incubated for 60 mins in presence of ATP by ADP-Glo kinase assay relative to control
Target sequence in this assay (Q92918 whole entry, looked up): as the sequence (Q92918 whole entry) above

[3] = biological target: T1, Mitogen-activated protein kinase kinase kinase kinase 1; test: Inhibition of HPK1 (unknown origin) at 1 uM using myelin basic protein as substrate incubated for 60 mins in presence of ATP by ADP-Glo kinase assay relative to control
Target sequence in this assay (Q92918 whole entry, looked up): as the sequence (Q92918 whole entry) above

[4] = biological target: T1, Mitogen-activated protein kinase kinase kinase kinase 1; test: Inhibition of HPK1 in human PBMC cells assessed as increase in IL-2 release preincubated with compound for 1 hr followed by stimulation with CD3/CD28-dynabead measured after 16 to 18 hrs by ELISA assay; format: cell-based
Target sequence in this assay (Q92918 whole entry): as above

[5] = biological target: T1, Mitogen-activated protein kinase kinase kinase kinase 1; test: Inhibition of HPK1 in human Jurkat E6.1 cells assessed as reduction in SLP76 phosphorylation at Serine 376 residue preincubated with compound for 2 hrs followed by stimulation with alphaCD3/CD28 measured after 10 mins by Western blotting analysis; format: cell-based
Target sequence in this assay (Q92918 whole entry): as above

[6] = biological target: T1, Mitogen-activated protein kinase kinase kinase kinase 1; test: Inhibition of N-terminal DYKDDDDK tagged HPK1 CD (1 to 346 residues) (unknown origin) incubated for 1 hr in presence of ATP by TR-FRET assay
Target sequence in this assay (Q92918 whole entry): as above

[7] = biological target: T1, Mitogen-activated protein kinase kinase kinase kinase 1; test: Inhibition of HPK1 in human Jurkat E6.1 cells assessed as reduction in SLP76 phosphorylation at Serine 376 residue at 0.4 to 100 nM preincubated with compound for 2 hrs followed by stimulation with alphaCD3/CD28 measured after 10 mins by Western blotting analysis; format: cell-based; details: dose 0.4-100 nM, time 130.0 min
Target sequence in this assay (Q92918 whole entry, looked up): as the sequence (Q92918 whole entry) above

[8] = biological target: T1, Mitogen-activated protein kinase kinase kinase kinase 1; test: Inhibition of HPK1 in human PBMC cells assessed as reduction in SLP76 phosphorylation at Ser376 residue preincubated with compound for 1 hr followed by stimulation with CD3/CD28-dynabead by ELISA assay; format: cell-based
Target sequence in this assay (Q92918 whole entry): as above

[9] = biological target: T1, Mitogen-activated protein kinase kinase kinase kinase 1; test: Inhibition of HPK1 in human Jurkat E6.1 cells assessed as phosphorylation of SLP76 at serine 376 residue incubated for 4 hrs by HTRF assay; format: cell-based
Target sequence in this assay (Q92918 whole entry): as above

[10] = biological target: T1, Mitogen-activated protein kinase kinase kinase kinase 1; test: Inhibition of HPK1 in human Jurkat E6.1 cells assessed as reduction in SLP76 phosphorylation at Serine 376 residue at 33 nM preincubated with compound for 2 hrs followed by stimulation with alphaCD3/CD28 measured after 10 mins by Western blotting analysis; format: cell-based; details: time 130.0 min
Target sequence in this assay (Q92918 whole entry, looked up): as the sequence (Q92918 whole entry) above

[11] = biological target: T1, Mitogen-activated protein kinase kinase kinase kinase 1; test: Inhibition of HPK1 in human PBMC cells assessed as increase in IL-2 release at above 1 uM preincubated with compound for 1 hr followed by stimulation with alphaCD3/CD28 measured after 48 hrs by ELISA assay; format: cell-based; details: time 49.0 hrs
Target sequence in this assay (Q92918 whole entry, looked up): as the sequence (Q92918 whole entry) above

SMILES | IC50 [1] [nM] | inhibition [2] [%] | inhibition [3] [%] | further results
Cc1c(N)cncc1-c1cc(N)c2cnc(Nc3cnn(C4CC4)c3)nc2c1 | 10.4 | 93 | – | –
Cc1cncc(-c2cc(N)c3cnc(Nc4cnn(C5CC5)c4)nc3c2)c1 | – | 42.7 | 87.6 | –
Cc1c(-c2cc3cc(NC(=O)C4CC4)ncc3c(N)c2F)cnc2c1NCCO2 | 3.1 | 97.9 | – | EC50 [4]: 16 nM; IC50 [5]: 6.1 nM; IC50 [6]: 0.067 nM; inhibition [7]: Active; IC50 [8]: 84 nM
Nc1cc(-c2ccccn2)cc2nc(Nc3cnn(C4CC4)c3)ncc12 | – | -6.9 | 30.3 | –
Nc1cc(-c2ccncc2)cc2nc(Nc3cnn(C4CC4)c3)ncc12 | – | -3.3 | 24.1 | –
CN1CCC(c2ncc(-c3cnc(N)c(OCc4cccc(C#CC(C)(C)O)c4)c3)s2)CC1 | – | – | – | IC50 [9]: < 100 nM
Nc1cc(-c2cccnc2)cc2nc(Nc3cnn(C4CC4)c3)ncc12 | 61.4 | 56.2 | 86 | –
COc1ncc(-c2cc(N)c3cnc(Nc4cnn(C5CC5)c4)nc3c2)cc1N | – | 0.1 | 60.6 | –
Nc1cncc(-c2cc(N)c3cnc(Nc4cnn(C5CC5)c4)nc3c2)c1 | 33.2 | 80 | – | –
CC1(C)OC(=O)c2ccc(Nc3ncc(-c4nnco4)c(N[C@H](CO)c4ccccc4)n3)cc21 | – | 92.5 | 99.7 | –
Cc1ccncc1-c1cc(N)c2cnc(Nc3cnn(C4CC4)c3)nc2c1 | 17.9 | 87.2 | 98.1 | –
Cn1cc(-c2cc(N)c3cnc(Nc4cnn(C5CC5)c4)nc3c2)cn1 | 50.5 | 68.6 | 95.8 | –
N#Cc1ccncc1-c1cc(N)c2cnc(Nc3cnn(C4CC4)c3)nc2c1 | – | 36.3 | 85.5 | –
Cc1ccc(-c2cc(N)c3cnc(Nc4cnn(C5CC5)c4)nc3c2)cn1 | – | 36.2 | 85.9 | –
Cc1c(-c2cc(N)c3cnc(Nc4cnn(C5CC5)c4)nc3c2)cnn1C | 61.1 | 53.6 | 90.9 | –
Cc1nn(C)cc1-c1cc(N)c2cnc(Nc3cnn(C4CC4)c3)nc2c1 | – | -5.1 | 25.8 | –
Cn1nccc1-c1cc(N)c2cnc(Nc3cnn(C4CC4)c3)nc2c1 | – | 23.2 | 49.2 | –
Nc1cc(-c2ccccc2)cc2nc(Nc3cnn(C4CC4)c3)ncc12 | – | 1.6 | 33.6 | –

The next lines start with results.

IC50 [1] [nM] | inhibition [2] [%] | inhibition [3] [%] | SMILES | further results
15.5 | – | – | CCn1ccc(Nc2ncc3c(N)cc(-c4cnc5c(c4C)NCCO5)cc3n2)n1 | –
4.3 | – | – | Cc1c(-c2cc(N)c3cnc(Nc4ccc5c(c4)CCNC5)nc3c2)cnc2c1NCCO2 | –
12 | – | – | CCn1cc(Nc2ncc3c(N)cc(-c4cnc5c(c4C)NCCO5)cc3n2)cn1 | –
– | 7.5 | – | Cc1nn(C)c(C)c1Nc1ncc2c(N)cc(-c3cnc4c(c3C)NCCO4)cc2n1 | –
35.7 | – | – | Cc1c(-c2cc(N)c3cnc(Nc4cnn(C)c4C)nc3c2)cnc2c1NCCO2 | –
5.6 | – | – | CNCCc1ccc(Nc2ncc3c(N)cc(-c4cnc5c(c4C)NCCO5)cc3n2)cc1 | –
6 | – | – | CNCCc1cccc(Nc2ncc3c(N)cc(-c4cnc5c(c4C)NCCO5)cc3n2)c1 | –
95.7 | – | – | Cc1c(-c2cc(N)c3cnc(Nc4ccccn4)nc3c2)cnc2c1NCCO2 | –
7.9 | – | – | Cc1nn(C)cc1Nc1ncc2c(N)cc(-c3cnc4c(c3C)NCCO4)cc2n1 | –
3 | – | – | Cc1c(-c2cc(N)c3cnc(Nc4ccc5c(c4)CNCC5)nc3c2)cnc2c1NCCO2 | –
53 | – | – | Cc1c(-c2cc(N)c3cnc(Nc4cc(C)n(C)n4)nc3c2)cnc2c1NCCO2 | –
4.3 | – | – | CNCc1ccc(Nc2ncc3c(N)cc(-c4cnc5c(c4C)NCCO5)cc3n2)cc1 | –
5 | – | – | CNCc1cccc(Nc2ncc3c(N)cc(-c4cnc5c(c4C)NCCO5)cc3n2)c1 | –
5.7 | – | – | Cc1c(-c2cc(N)c3cnc(Nc4ccncc4)nc3c2)cnc2c1NCCO2 | –
7.8 | – | – | Cc1c(-c2cc(N)c3cnc(Nc4cnn(C)c4)nc3c2)cnc2c1NCCO2 | –
4.8 | – | – | Cc1c(-c2cc(N)c3cnc(Nc4ccc5c(c4)CCN(C)C5)nc3c2)cnc2c1NCCO2 | –
6.4 | – | – | Cc1c(-c2cc(N)c3cnc(Nc4cnn(C(C)C)c4)nc3c2)cnc2c1NCCO2 | –
5.7 | 96.3 | – | Cc1c(-c2cc(N)c3cnc(Nc4cnn(C5CC5)c4)nc3c2)cnc2c1NCCO2 | inhibition [10]: Active; IC50 [5]: 23.1 nM; inhibition [11]: Active
6.9 | – | – | CCN1CCc2ccc(Nc3ncc4c(N)cc(-c5cnc6c(c5C)NCCO6)cc4n3)cc2C1 | –
5.5 | – | – | Cc1c(-c2cc(N)c3cnc(Nc4cccnc4)nc3c2)cnc2c1NCCO2 | –
6.2 | – | – | Cc1c(-c2cc(N)c3cnc(Nc4ccccc4)nc3c2)cnc2c1NCCO2 | –
12.7 | – | – | Cc1c(-c2cc(N)c3cnc(Nc4ccn(C)n4)nc3c2)cnc2c1NCCO2 | –
5.2 | – | – | Cc1c(-c2cc(N)c3cnc(Nc4ccc5c(c4)CN(C(C)C)CC5)nc3c2)cnc2c1NCCO2 | –
7.3 | – | – | COc1cc2c(cc1Nc1ncc3c(N)cc(-c4cnc5c(c4C)NCCO5)cc3n1)CN(C)CC2 | –
– | 4.7 | – | Cc1c(-c2cc(N)c3cnc(NC(=O)C4CC4)nc3c2)cnc2c1NCCO2 | –

From ChEMBL document CHEMBL5321199, “Development of a series of quinazoline-2,5-diamine derivatives as potent hematopoietic progenitor kinase 1 (HPK1) inhibitors” (Eur J Med Chem, 2023)
